The target in the assay is focal adhesion kinase (FAK) (Homo sapiens, UniProt Q05397). Put plainly: FAK kinase inhibition assay. It counts as biochemical.
Chain of focal adhesion kinase (FAK) (Q05397 2-1052): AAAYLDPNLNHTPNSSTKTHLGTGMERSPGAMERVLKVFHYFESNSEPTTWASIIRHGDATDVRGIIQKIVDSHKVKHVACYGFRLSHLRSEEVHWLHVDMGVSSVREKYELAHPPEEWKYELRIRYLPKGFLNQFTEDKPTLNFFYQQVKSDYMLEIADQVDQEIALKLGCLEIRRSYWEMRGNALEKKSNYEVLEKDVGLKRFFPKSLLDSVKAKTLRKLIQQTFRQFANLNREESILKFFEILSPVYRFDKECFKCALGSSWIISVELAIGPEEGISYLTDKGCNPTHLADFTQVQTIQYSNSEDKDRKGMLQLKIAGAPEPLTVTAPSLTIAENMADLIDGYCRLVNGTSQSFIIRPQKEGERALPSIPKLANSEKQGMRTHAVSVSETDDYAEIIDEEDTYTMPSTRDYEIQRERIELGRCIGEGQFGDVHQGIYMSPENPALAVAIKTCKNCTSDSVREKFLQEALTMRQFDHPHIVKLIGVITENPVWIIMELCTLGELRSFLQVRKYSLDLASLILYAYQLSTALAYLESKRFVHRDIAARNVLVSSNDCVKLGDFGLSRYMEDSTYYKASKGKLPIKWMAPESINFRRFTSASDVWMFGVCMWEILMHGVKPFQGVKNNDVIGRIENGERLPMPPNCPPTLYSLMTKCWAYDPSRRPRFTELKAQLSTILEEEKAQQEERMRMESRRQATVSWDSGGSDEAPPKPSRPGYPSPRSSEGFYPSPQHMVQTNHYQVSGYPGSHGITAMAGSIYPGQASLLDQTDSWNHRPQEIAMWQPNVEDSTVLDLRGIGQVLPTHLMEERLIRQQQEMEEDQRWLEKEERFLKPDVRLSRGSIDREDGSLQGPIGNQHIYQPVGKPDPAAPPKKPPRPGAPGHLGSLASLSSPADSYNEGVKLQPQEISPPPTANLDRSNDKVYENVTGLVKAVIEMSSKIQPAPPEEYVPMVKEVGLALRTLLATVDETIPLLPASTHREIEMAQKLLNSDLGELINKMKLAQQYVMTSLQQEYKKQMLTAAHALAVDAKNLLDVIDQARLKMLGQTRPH

In turn, `CONC(=O)c1ccccc1Nc1cc(Nc2cc(C)nn2C(C)C)ncc1Cl` [GSK2256098] yielded a half-maximal inhibitory concentration (IC50) of 22.1 nM. This lies in the double-digit nanomolar range.

As usually defined, the IC50 is the midpoint of a concentration-inhibition curve. The low end stands for higher potency, the high end for lower potency.

The values are drawn from paper PMC8459745 (Bioorganic & medicinal chemistry letters, 2021).
